# Laboratory results published in ChEMBL document CHEMBL3638409, “Cycloalkane carboxylic acid derivatives as CXCR3 receptor antagonists” (2015).
# Biological target: T1, C-X-C chemokine receptor type 3 (Homo sapiens, UniProt P49682)
# T1 sequence (P49682 whole entry): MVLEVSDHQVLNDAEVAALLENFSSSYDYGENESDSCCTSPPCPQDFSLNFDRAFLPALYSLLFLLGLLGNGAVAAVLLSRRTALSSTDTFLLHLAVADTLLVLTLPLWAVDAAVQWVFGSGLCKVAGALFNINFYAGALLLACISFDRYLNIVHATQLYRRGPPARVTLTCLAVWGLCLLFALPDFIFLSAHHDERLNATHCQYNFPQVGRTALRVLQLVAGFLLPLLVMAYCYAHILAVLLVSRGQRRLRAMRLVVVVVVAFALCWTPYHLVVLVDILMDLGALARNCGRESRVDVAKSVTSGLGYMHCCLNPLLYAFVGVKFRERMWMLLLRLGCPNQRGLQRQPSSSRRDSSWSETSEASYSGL
# Experiment: Competition Radioligand Binding Assay: Competition radioligand binding assays were performed to determine the in vitro potency of the newly synthesized, unlabeled test compounds to displace the specific binding of the radiolabelled endogenous chemokine, 125I-CXCL10, from the human CXCR3-A receptor. IC50 values were determined for the test compounds and used to explore the structure-activity relationships (SAR).
row,IC50,Compound
1,431 nM,Cc1cc(CN(C[C@H]2CC[C@H](C(=O)O)CC2)C(C)c2ccc(Cl)c(Cl)c2)ccc1OCCN1C(=O)CN(C)C1=O (some centres undefined)
2,81 nM,COc1cc(CN(C[C@H]2CC[C@H](C(=O)O)CC2)C(C)c2ccc3c(c2)CCO3)ccc1CCCN1C(=O)CCC1=O (some centres undefined)
3,58 nM,COc1cc(CN(C2CC(C(=O)O)C2)C(C)c2ccc3c(c2)CCO3)ccc1OCCN1C(=O)CCC1=O (centres undefined)
4,1200 nM,CN1CC(=O)N(CCOc2ccc(CN(C[C@H]3CC[C@H](C(=O)O)CC3)C3CCc4cc(Cl)ccc43)cc2Cl)C1=O (some centres undefined)
